Measured values from ChEMBL document CHEMBL3797052 (Eur J Med Chem, 2016).

Legend:
SK-MEL-5 = assay: Antiproliferative activity against human SK-MEL-5 cells assessed as cell growth at 10^-4 M after 48 hrs by sulforhodamine B assay; format: functional; conditions: SK-MEL-5, 48 h, read-out: Activity
NCI-H23 = assay: Antiproliferative activity against human NCI-H23 cells assessed as cell growth at 10^-6 M after 48 hrs by sulforhodamine B assay; format: functional; conditions: NCI-H23, 48 h, read-out: Activity
SK-MEL-2 = assay: Antiproliferative activity against human SK-MEL-2 cells assessed as cell growth at 10^-8 M after 48 hrs by sulforhodamine B assay; format: functional; conditions: SK-MEL-2, 48 h, read-out: Activity
[1] = Antiproliferative activity against human COLO205 cells assessed as cell growth at 10^-4 M after 48 hrs by sulforhodamine B assay; format: functional; conditions: COLO 205, 48 h, read-out: Activity
[2] = Antiproliferative activity against human MOLT4 cells assessed as cell growth at 10^-6 M after 48 hrs by sulforhodamine B assay; format: functional; conditions: MOLT-4, 48 h, read-out: Activity
SK-MEL-28 [3] = assay: Antiproliferative activity against human SK-MEL-28 cells assessed as cell growth at 10^-7 M after 48 hrs by sulforhodamine B assay; format: functional; conditions: SK-MEL-28, 48 h, read-out: Activity
[4] = Antiproliferative activity against human BT549 cells assessed as cell growth at 10^-7 M after 48 hrs by sulforhodamine B assay; format: functional; conditions: BT-549, 48 h, read-out: Activity
[5] = Antiproliferative activity against human RPMI8226 cells assessed as cell growth at 10^-6 M after 48 hrs by sulforhodamine B assay; format: functional; conditions: RPMI-8226, 48 h, read-out: Activity
MCF7 = assay: Antiproliferative activity against human MCF7 cells assessed as growth inhibition after 48 hrs by sulforhodamine B assay; format: functional; conditions: MCF7, 48 h
[6] = Antiproliferative activity against human DU145 cells assessed as cell growth at 10^-7 M after 48 hrs by sulforhodamine B assay; format: functional; conditions: DU-145, 48 h, read-out: Activity
[7] = Antiproliferative activity against human HL-60(TB) cells assessed as cell growth at 10^-4 M after 48 hrs by sulforhodamine B assay; format: functional; conditions: HL-60, 48 h, read-out: Activity
SK-MEL-28 [8] = assay: Antiproliferative activity against human SK-MEL-28 cells assessed as cell growth at 10^-4 M after 48 hrs by sulforhodamine B assay; format: functional; conditions: SK-MEL-28, 48 h, read-out: Activity
[9] = Antiproliferative activity against human UACC257 cells assessed as cell growth at 10^-8 M after 48 hrs by sulforhodamine B assay; format: functional; conditions: UACC-257, 48 h, read-out: Activity
[10] = Antiproliferative activity against human RXF393 cells assessed as cell growth at 10^-4 M after 48 hrs by sulforhodamine B assay; format: functional; conditions: RXF 393, 48 h, read-out: Activity
[11] = Antiproliferative activity against human UACC62 cells assessed as growth inhibition after 48 hrs by sulforhodamine B assay; format: functional; conditions: UACC-62, 48 h
[12] = Antiproliferative activity against human OVCAR3 cells assessed as cell growth at 10^-6 M after 48 hrs by sulforhodamine B assay; format: functional; conditions: OVCAR-3, 48 h, read-out: Activity
[13] = Antiproliferative activity against human SW620 cells assessed as growth inhibition after 48 hrs by sulforhodamine B assay; format: functional; conditions: SW-620, 48 h
MDA-MB-468 = assay: Antiproliferative activity against human MDA-MB-468 cells assessed as growth inhibition after 48 hrs by sulforhodamine B assay; format: functional; conditions: MDA-MB-468, 48 h
[14] = Antiproliferative activity against human OVCAR8 cells assessed as growth inhibition after 48 hrs by sulforhodamine B assay; format: functional; conditions: OVCAR-8, 48 h
[15] = biological target: Serine/threonine-protein kinase B-raf (Homo sapiens, UniProt P15056, V600E); assay: Inhibition of BRAF V600E mutant (unknown origin) measured after 40 mins by scintillation counting
CCRF-CEM = assay: Antiproliferative activity against human CCRF-CEM cells assessed as cell growth at 10^-4 M after 48 hrs by sulforhodamine B assay; format: functional; conditions: read-out: Activity
[16] = Antiproliferative activity against human Caki1 cells assessed as cell growth at 10^-7 M after 48 hrs by sulforhodamine B assay; format: functional; conditions: CAKI-1, 48 h, read-out: Activity
U-251 = assay: Antiproliferative activity against human U251 cells assessed as cell growth at 10^-8 M after 48 hrs by sulforhodamine B assay; format: functional; conditions: U-251, 48 h, read-out: Activity
CYP3A4 = CYP3A4 (Homo sapiens, UniProt P08684); assay: Inhibition of recombinant human CYP3A4 assessed as remaining enzyme activity using CYP3A4 blue as substrate at 10 uM after 5 mins in presence of NADP by fluorescence plate reader analysis; format: ADME; conditions: recombinant human CYP3A4, probe CYP3A4 blue, read-out: Activity
[17] = Antiproliferative activity against human HOP92 cells assessed as cell growth at 10^-6 M after 48 hrs by sulforhodamine B assay; format: functional; conditions: HOP-92, 48 h, read-out: Activity
[18] = Antiproliferative activity against human MOLT4 cells assessed as growth inhibition after 48 hrs by sulforhodamine B assay; format: functional; conditions: MOLT-4, 48 h
[19] = Antiproliferative activity against human IGROV1 cells assessed as cell growth at 10^-4 M after 48 hrs by sulforhodamine B assay; format: functional; conditions: IGROV-1, 48 h, read-out: Activity
A498 = assay: Antiproliferative activity against human A498 cells assessed as cell growth at 10^-7 M after 48 hrs by sulforhodamine B assay; format: functional; conditions: A498, 48 h, read-out: Activity
[20] = Antiproliferative activity against human SNB75 cells assessed as cell growth at 10^-8 M after 48 hrs by sulforhodamine B assay; format: functional; conditions: SNB-75, 48 h, read-out: Activity
[21] = Antiproliferative activity against human HOP92 cells assessed as cell growth at 10^-4 M after 48 hrs by sulforhodamine B assay; format: functional; conditions: HOP-92, 48 h, read-out: Activity
T47D = assay: Antiproliferative activity against human T47D cells assessed as cell growth at 10^-7 M after 48 hrs by sulforhodamine B assay; format: functional; conditions: read-out: Activity
[22] = Antiproliferative activity against human HOP62 cells assessed as growth inhibition after 48 hrs by sulforhodamine B assay; format: functional; conditions: HOP-62, 48 h
SN12C = assay: Antiproliferative activity against human SN12C cells assessed as cell growth at 10^-7 M after 48 hrs by sulforhodamine B assay; format: functional; conditions: read-out: Activity
[23] = Antiproliferative activity against human HCT15 cells assessed as growth inhibition after 48 hrs by sulforhodamine B assay; format: functional; conditions: HCT-15, 48 h
K562 = assay: Antiproliferative activity against human K562 cells assessed as cell growth at 10^-4 M after 48 hrs by sulforhodamine B assay; format: functional; conditions: K562, 48 h, read-out: Activity
[24] = read-out: LC50 (the source's name)

Chain of CYP3A4 (P08684 whole entry): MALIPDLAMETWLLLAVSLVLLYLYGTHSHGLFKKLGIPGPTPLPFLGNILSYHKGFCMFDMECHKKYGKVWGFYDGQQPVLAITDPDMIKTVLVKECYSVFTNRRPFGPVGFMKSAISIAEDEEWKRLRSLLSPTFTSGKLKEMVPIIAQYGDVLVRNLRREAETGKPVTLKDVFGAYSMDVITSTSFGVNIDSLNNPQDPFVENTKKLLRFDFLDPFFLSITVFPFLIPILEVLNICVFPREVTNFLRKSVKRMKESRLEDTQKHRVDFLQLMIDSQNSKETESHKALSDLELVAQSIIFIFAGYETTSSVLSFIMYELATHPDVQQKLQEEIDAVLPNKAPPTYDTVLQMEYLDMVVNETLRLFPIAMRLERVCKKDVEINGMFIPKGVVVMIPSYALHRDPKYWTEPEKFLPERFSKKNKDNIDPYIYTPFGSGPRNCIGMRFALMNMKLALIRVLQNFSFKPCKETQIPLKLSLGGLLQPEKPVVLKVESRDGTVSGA
Chain of Serine/threonine-protein kinase B-raf (P15056 2-766 V600E limits assumed): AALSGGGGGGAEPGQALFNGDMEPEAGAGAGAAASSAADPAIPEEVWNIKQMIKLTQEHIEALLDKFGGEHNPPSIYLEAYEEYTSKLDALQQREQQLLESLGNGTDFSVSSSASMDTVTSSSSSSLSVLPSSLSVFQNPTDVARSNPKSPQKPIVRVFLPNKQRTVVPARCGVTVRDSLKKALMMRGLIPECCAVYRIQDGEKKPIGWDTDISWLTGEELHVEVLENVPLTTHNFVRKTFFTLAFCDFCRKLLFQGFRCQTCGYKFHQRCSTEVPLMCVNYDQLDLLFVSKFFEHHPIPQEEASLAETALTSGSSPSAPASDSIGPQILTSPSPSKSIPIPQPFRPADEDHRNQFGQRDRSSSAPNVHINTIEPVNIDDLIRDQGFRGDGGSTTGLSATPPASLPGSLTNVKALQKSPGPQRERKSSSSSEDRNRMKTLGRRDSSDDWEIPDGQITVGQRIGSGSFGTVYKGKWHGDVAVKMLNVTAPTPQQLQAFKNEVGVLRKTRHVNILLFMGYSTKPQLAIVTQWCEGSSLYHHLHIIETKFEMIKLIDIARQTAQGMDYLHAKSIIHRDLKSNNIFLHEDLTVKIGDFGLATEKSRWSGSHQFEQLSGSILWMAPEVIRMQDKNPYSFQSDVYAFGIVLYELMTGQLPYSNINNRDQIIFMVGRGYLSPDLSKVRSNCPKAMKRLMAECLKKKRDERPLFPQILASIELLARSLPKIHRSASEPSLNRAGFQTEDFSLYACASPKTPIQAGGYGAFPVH

CNC(=O)c1cc(Oc2ccc3nc(NC(=O)c4cc(C(F)(F)F)cc(C(F)(F)F)c4)sc3c2)ccn1
growth at 100 µM (SK-MEL-5): -89% | growth at 1 µM (NCI-H23): 89% | growth at 0.01 µM (SK-MEL-2): 88% | growth at 100 µM [1]: -88% | growth at 1 µM [2]: 85% | growth at 0.1 µM (SK-MEL-28 [3]): 96% | growth at 0.1 µM [4]: 86% | growth at 1 µM [5]: 75% | GI50 (MCF7): 3.37 µM | TGI (MCF7): 18 µM | CC50 (MCF7; [24]): > 100 µM | growth at 0.1 µM [6]: 105% | growth at 100 µM [7]: -45% | growth at 100 µM (SK-MEL-28 [8]): -13% | growth at 0.01 µM [9]: 87% | growth at 100 µM [10]: -78% | GI50 [11]: 2.71 µM | TGI [11]: 12.1 µM | CC50 [11, 24]: 80.5 µM | growth at 1 µM [12]: 90% | GI50 [13]: 7.56 µM | TGI [13]: 63.8 µM | CC50 [13, 24]: > 100 µM | GI50 (MDA-MB-468): 3.18 µM | TGI (MDA-MB-468): 14.2 µM | CC50 (MDA-MB-468; [24]): > 100 µM | GI50 [14]: 3.06 µM | LC50 [14]: 69.9 µM | TGI [14]: 13 µM | IC50 [15]: 4.3 µM | growth at 100 µM (CCRF-CEM): 25% | growth at 0.1 µM [16]: 91% | growth at 0.01 µM (U-251): 98% | activity at 5 min, 10 µM (CYP3A4): 72.9% | growth at 1 µM [17]: 68% | GI50 [18]: 2.61 µM | LC50 [18]: > 100 µM | TGI [18]: 12.4 µM | growth at 100 µM [19]: -35% | growth at 0.1 µM (A498): 67% | growth at 0.01 µM [20]: 82% | growth at 100 µM [21]: -41% | growth at 0.1 µM (T47D): 88% | GI50 [22]: 3.36 µM | LC50 [22]: 51.6 µM | TGI [22]: 10.8 µM | growth at 0.1 µM (SN12C): 101% | GI50 [23]: 3.97 µM | LC50 [23]: > 100 µM | TGI [23]: 25.1 µM | growth at 100 µM (K562): 4%
